Source: PubChem BioAssay AID2060512 (Molecular Pharmacology Branch, DTP, NCI, 2025)

System: 186277-243-T-J2-PDC complex spheroid viability
Test: Anticancer human tumor 186277-243-T-J2-PDC patient-derived colon adenocarcinoma cell line growth inhibition [GQUAD]
Details: for IC50: curve of first compound; for viability, T/C: stronger effect = lower value
Procedure, shortened: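 Multi-cell-type spheroids of tumor cells with HUVEC and mesenchymal stem cells, treated with drug combinations. Concentrations descend in half-log steps from near clinical Cmax, or from 10 microM where Cmax is unknown; viability read-out.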

[1] = second compound 0.0316 µM, first compound 0.0316 µM
[2] = second compound 0.0316 µM, first compound 0.1 µM
[3] = second compound 0.0316 µM, first compound 0.316 µM
[4] = second compound 0.0316 µM, first compound 1 µM
[5] = second compound 0.0316 µM, first compound 3.16 µM
[6] = second compound 0.0316 µM, first compound 10 µM
[7] = second compound 0.1 µM, first compound 0.0316 µM
[8] = second compound 0.1 µM, first compound 0.1 µM
[9] = second compound 0.1 µM, first compound 0.316 µM
[10] = second compound 0.1 µM, first compound 1 µM
[11] = second compound 0.1 µM, first compound 3.16 µM
[12] = second compound 0.1 µM, first compound 10 µM
[13] = second compound 0.316 µM, first compound 0.0316 µM
[14] = second compound 0.316 µM, first compound 0.1 µM
[15] = second compound 0.316 µM, first compound 0.316 µM
[16] = second compound 0.316 µM, first compound 1 µM
[17] = second compound 0.316 µM, first compound 3.16 µM
[18] = second compound 0.316 µM, first compound 10 µM
[19] = second compound 1 µM, first compound 0.0316 µM
[20] = second compound 1 µM, first compound 0.1 µM
[21] = second compound 1 µM, first compound 0.316 µM
[22] = second compound 1 µM, first compound 1 µM
[23] = second compound 1 µM, first compound 3.16 µM
[24] = second compound 1 µM, first compound 10 µM
[25] = second compound 3.16 µM, first compound 0.0316 µM
[26] = second compound 3.16 µM, first compound 0.1 µM
[27] = second compound 3.16 µM, first compound 0.316 µM
[28] = second compound 3.16 µM, first compound 1 µM
[29] = second compound 3.16 µM, first compound 3.16 µM
[30] = second compound 3.16 µM, first compound 10 µM
[31] = second compound 10 µM, first compound 0.0316 µM
[32] = second compound 10 µM, first compound 0.1 µM
[33] = second compound 10 µM, first compound 0.316 µM
[34] = second compound 10 µM, first compound 1 µM
[35] = second compound 10 µM, first compound 3.16 µM
[36] = second compound 10 µM, first compound 10 µM
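Also: spheroids exposed to drugs for 7 days.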
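For viability, T/C in this document: 100% = DMSO vehicle control viability.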

For `COc1cc(C2c3cc4c(cc3C(OC3OC5COC(C)OC5C(O)C3O)C3COC(=O)C23)OCO4)cc(OC)c1O` (centres undefined) + CN(C)c1ccc(Nc2c3ccc(NC(=O)CCN4CCCC4)cc3nc3cc(NC(=O)CCN4CCCC4)ccc23)cc1, the IC50 (second compound 0.0316 µM) was 0.767 µM, the IC50 (second compound 0.1 µM) was 0.757 µM and the IC50 (second compound 0.316 µM) was 0.915 µM. For the same compound, the IC50 (second compound 1 µM) was 0.808 µM, the IC50 (second compound 3.16 µM) was 1.34 µM and the IC50 (second compound 10 µM) was 1.46 µM. The viability, T/C [1] was 112%, the viability, T/C [2] was 99.4% and the viability, T/C [3] was 74.2%. The viability, T/C [4] was 38.9%, the viability, T/C [5] was 35% and the viability, T/C [6] was 18.6%. It also gave a viability, T/C [7] of 91.5%, a viability, T/C [8] of 94.5% and a viability, T/C [9] of 72.3%. It also gave a viability, T/C [10] of 40.4%, a viability, T/C [11] of 34.6% and a viability, T/C [12] of 18.6%. The viability, T/C [13] was 113%, the viability, T/C [14] was 96.7% and the viability, T/C [15] was 80.5%. The viability, T/C [16] was 42.8%, the viability, T/C [17] was 31.7% and the viability, T/C [18] was 15.6%. The viability, T/C [19] was 105%, the viability, T/C [20] was 107% and the viability, T/C [21] was 74.6%. For the same compound, the viability, T/C [22] was 42.9%, the viability, T/C [23] was 32.9% and the viability, T/C [24] was 17.5%. The viability, T/C [25] was 115%, the viability, T/C [26] was 102% and the viability, T/C [27] was 81.1%. For the same compound, the viability, T/C [28] was 49.6%, the viability, T/C [29] was 39.9% and the viability, T/C [30] was 16%. It also gave a viability, T/C [31] of 107%, a viability, T/C [32] of 74.5% and a viability, T/C [33] of 88.6%. For the same compound, the viability, T/C [34] was 50.9%, the viability, T/C [35] was 37.2% and the viability, T/C [36] was 15.5%.
In the case of `Cc1cccc(N(C)C(=O)C2C(O)CCN2c2nc(C)cc(C(F)(F)F)c2C#N)c1` (centres undefined) + Cc1[nH]c2ccc(F)cc2c1-c1nc2c3cccnc3c3ncccc3c2[nH]1, the IC50 (second compound 0.0316 µM) is reported as over 10 µM, the IC50 (second compound 0.1 µM) is reported as over 10 µM and the IC50 (second compound 0.316 µM) is reported as over 10 µM. It also gave an IC50 (second compound 1 µM) of over 10 µM, an IC50 (second compound 3.16 µM) of over 10 µM and an IC50 (second compound 10 µM) of over 10 µM. It also gave a viability, T/C [1] of 104%, a viability, T/C [2] of 104% and a viability, T/C [3] of 98.2%. It also gave a viability, T/C [4] of 95.8%, a viability, T/C [5] of 88.7% and a viability, T/C [6] of 106%. The viability, T/C [7] was 104%, the viability, T/C [8] was 97.1% and the viability, T/C [9] was 100%. For the same compound, the viability, T/C [10] was 92.6%, the viability, T/C [11] was 95.5% and the viability, T/C [12] was 96.3%. It also gave a viability, T/C [13] of 92.6%, a viability, T/C [14] of 105% and a viability, T/C [15] of 99.8%. It also gave a viability, T/C [16] of 98%, a viability, T/C [17] of 105% and a viability, T/C [18] of 104%. For the same compound, the viability, T/C [19] was 128%, the viability, T/C [20] was 85.8% and the viability, T/C [21] was 98.2%. The viability, T/C [22] was 98.3%, the viability, T/C [23] was 97% and the viability, T/C [24] was 108%. For the same compound, the viability, T/C [25] was 127%, the viability, T/C [26] was 89.3% and the viability, T/C [27] was 98.2%. The viability, T/C [28] was 105%, the viability, T/C [29] was 99.9% and the viability, T/C [30] was 113%. For the same compound, the viability, T/C [31] was 90.9%, the viability, T/C [32] was 101% and the viability, T/C [33] was 109%. It also gave a viability, T/C [34] of 92.2%, a viability, T/C [35] of 98.8% and a viability, T/C [36] of 99.9%.
